Legend:
Format in all cases: cell-based
NK3 = molecular target: T1, NK3 (Homo sapiens, UniProt P29371); experiment: Signal transduction (ST), intracellular Ca++ (FLIPR), NK3; conditions: antagonist, read-out: NK3 pIC50 (converted)
T1 sequence (P29371 1-465): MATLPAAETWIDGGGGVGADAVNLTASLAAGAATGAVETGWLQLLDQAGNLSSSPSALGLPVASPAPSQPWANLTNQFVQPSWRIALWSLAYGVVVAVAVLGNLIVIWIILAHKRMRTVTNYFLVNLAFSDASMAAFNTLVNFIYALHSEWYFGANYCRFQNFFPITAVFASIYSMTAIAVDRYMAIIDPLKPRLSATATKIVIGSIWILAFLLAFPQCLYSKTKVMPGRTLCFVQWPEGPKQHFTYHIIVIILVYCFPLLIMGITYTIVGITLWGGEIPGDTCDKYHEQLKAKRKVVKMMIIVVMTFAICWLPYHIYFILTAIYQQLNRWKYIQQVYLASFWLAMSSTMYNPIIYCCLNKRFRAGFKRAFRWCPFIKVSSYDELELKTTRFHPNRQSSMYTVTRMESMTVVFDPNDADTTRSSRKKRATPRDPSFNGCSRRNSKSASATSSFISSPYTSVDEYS

NK2 = molecular target: T2, NK2 (Homo sapiens, UniProt P21452); experiment: Signal transduction (ST), intracellular Ca++ (FLIPR), NK2; conditions: antagonist, read-out: NK2 pIC50 (converted)
T2 sequence (P21452 1-398): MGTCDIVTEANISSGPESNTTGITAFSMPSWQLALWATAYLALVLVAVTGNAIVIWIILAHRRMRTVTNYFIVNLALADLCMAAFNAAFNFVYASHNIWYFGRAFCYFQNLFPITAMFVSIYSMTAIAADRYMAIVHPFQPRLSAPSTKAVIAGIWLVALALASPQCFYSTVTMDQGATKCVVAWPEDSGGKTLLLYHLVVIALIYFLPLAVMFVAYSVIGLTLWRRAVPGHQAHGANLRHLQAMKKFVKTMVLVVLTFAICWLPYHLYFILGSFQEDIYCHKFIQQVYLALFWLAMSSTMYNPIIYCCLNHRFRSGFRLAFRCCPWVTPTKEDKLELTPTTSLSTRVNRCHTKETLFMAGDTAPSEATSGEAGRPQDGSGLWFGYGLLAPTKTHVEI

NK1 = NK1 (Homo sapiens, UniProt P25103); experiment: Signal transduction (ST), intracellular Ca++ (FLIPR), functional NK1 antagonistic activity; conditions: antagonist, read-out: NK1 pIC50 (converted)
Method in brief: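 Confluent cells were loaded with 2 μM Fluo3 for 1 h at 37° C, then washed into Krebs buffer pH 7.4 with 1.25 mM CaCl2 and 2.5 mM probenecid. Antagonists were preincubated 20 min at RT before agonist addition. Peak Ca++ transients were read by FLIPR, with EC50 or IC50 from sigmoidal non-linear regression.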

Chain of NK1 (P25103 whole entry): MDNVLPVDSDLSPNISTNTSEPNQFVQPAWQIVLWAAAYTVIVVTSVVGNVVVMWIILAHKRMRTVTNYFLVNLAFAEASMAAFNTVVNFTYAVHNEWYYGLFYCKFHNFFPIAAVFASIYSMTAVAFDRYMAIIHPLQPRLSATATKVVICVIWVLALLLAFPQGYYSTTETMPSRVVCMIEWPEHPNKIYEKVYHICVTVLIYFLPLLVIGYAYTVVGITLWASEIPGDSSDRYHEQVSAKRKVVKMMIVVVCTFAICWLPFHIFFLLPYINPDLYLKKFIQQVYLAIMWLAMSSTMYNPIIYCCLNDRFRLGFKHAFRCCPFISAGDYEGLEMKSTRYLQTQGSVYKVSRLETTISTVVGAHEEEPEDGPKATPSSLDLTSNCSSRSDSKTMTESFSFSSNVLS

IC50 (NK3) | IC50 (NK2) | IC50 (NK1) | Structure (SMILES)
2450 nM | 3470 nM | 23.4 nM | O=C(c1ccoc1)N1CCC2(CC1)CCN([C@H]1CCN(C(=O)c3cc(C(F)(F)F)cc(C(F)(F)F)c3)[C@H](Cc3ccc(F)c(F)c3)C1)CC2 [Compound 140]
7080 nM | 5890 nM | 41.7 nM | O=C(c1ccsc1)N1CCC2(CC1)CCN([C@H]1CCN(C(=O)c3cc(C(F)(F)F)cc(C(F)(F)F)c3)[C@H](Cc3ccc(F)c(F)c3)C1)CC2 [Compound 141]
1950 nM | 2040 nM | 56.2 nM | CC(C)S(=O)(=O)N1CCC2(CCN([C@H]3CCN(C(=O)c4cc(C(F)(F)F)cc(C(F)(F)F)c4)[C@H](Cc4ccccc4)C3)CC2)CC1 [Compound 167]
5750 nM | 6920 nM | 93.3 nM | O=C(C1CC1)N1CCCC2(CCN([C@H]3CCN(C(=O)c4cc(C(F)(F)F)cc(C(F)(F)F)c4)[C@H](Cc4ccccc4)C3)CC2)C1 [Compound 172]
> 10000 nM | ~1620 nM | 30.9 nM | O=C(C1CC1)N1CCCC2(CCN([C@@H]3CCN(C(=O)c4cc(C(F)(F)F)cc(C(F)(F)F)c4)[C@H](Cc4ccccc4)C3)CC2)C1 [Compound 173]
> 10000 nM | 6920 nM | 40.7 nM | O=C(C1CCOC1)N1CCCC2(CCN([C@H]3CCN(C(=O)c4cc(C(F)(F)F)cc(C(F)(F)F)c4)[C@H](Cc4ccccc4)C3)CC2)C1 (stereo partly drawn) [Compound 174]
> 10000 nM | 4470 nM | 15.5 nM | O=C(c1ccsc1)N1CCCC2(CCN([C@H]3CCN(C(=O)c4cc(C(F)(F)F)cc(C(F)(F)F)c4)[C@H](Cc4ccccc4)C3)CC2)C1 [Compound 175]
> 10000 nM | ~6460 nM | 72.4 nM | O=C(c1ccco1)N1CCCC2(CCN([C@H]3CCN(C(=O)c4cc(C(F)(F)F)cc(C(F)(F)F)c4)[C@H](Cc4ccccc4)C3)CC2)C1 [Compound 176]
> 10000 nM | 4900 nM | 437 nM | O=C(c1cc(C(F)(F)F)cc(C(F)(F)F)c1)N1CC[C@H](CN2CCC3(CCN(Cc4ccccc4)CC3)CC2)C[C@H]1Cc1ccccc1 [Compound 178]
> 10000 nM | > 10000 nM | 58.9 nM | O=C(C1CC1)N1CCC2(CCN(C[C@H]3CCN(C(=O)c4cc(C(F)(F)F)cc(C(F)(F)F)c4)[C@H](Cc4ccccc4)C3)CC2)CC1 [Compound 179]
> 10000 nM | 8320 nM | 14.8 nM | O=C(C1CCOC1)N1CCC2(CCN(C[C@H]3CCN(C(=O)c4cc(C(F)(F)F)cc(C(F)(F)F)c4)[C@H](Cc4ccccc4)C3)CC2)CC1 (stereo partly drawn) [Compound 180]
> 10000 nM | 7080 nM | 33.9 nM | CC(C)(C)OC(=O)N1CCCC1C(=O)N1CCC2(CCN(C[C@H]3CCN(C(=O)c4cc(C(F)(F)F)cc(C(F)(F)F)c4)[C@H](Cc4ccccc4)C3)CC2)CC1 (stereo partly drawn) [Compound 181]
9120 nM | > 10000 nM | 38 nM | O=C(c1ccsc1)N1CCC2(CCN(C[C@H]3CCN(C(=O)c4cc(C(F)(F)F)cc(C(F)(F)F)c4)[C@H](Cc4ccccc4)C3)CC2)CC1 [Compound 182]
7410 nM | 7760 nM | 17 nM | Cc1nnsc1C(=O)N1CCC2(CCN(C[C@H]3CCN(C(=O)c4cc(C(F)(F)F)cc(C(F)(F)F)c4)[C@H](Cc4ccccc4)C3)CC2)CC1 [Compound 183]
> 10000 nM | 5500 nM | 81.3 nM | O=C(C1CCN(C(=O)c2cc(C(F)(F)F)cc(C(F)(F)F)c2)C(Cc2ccccc2)C1)N1CCC2(CCN(Cc3ccccc3)CC2)CC1 (stereo not drawn) [Compound 185]
5370 nM | 5010 nM | 17 nM | O=C(C1CC1)N1CCC2(CC1)CCN(C(=O)[C@H]1CCN(C(=O)c3cc(C(F)(F)F)cc(C(F)(F)F)c3)[C@H](Cc3ccccc3)C1)CC2 [Compound 186]

IC50 (NK3) | IC50 (NK2) | IC50 (NK1) | Structure (SMILES)
> 10000 nM | 7080 nM | 20 nM | O=C(C1CCOC1)N1CCC2(CC1)CCN(C(=O)[C@H]1CCN(C(=O)c3cc(C(F)(F)F)cc(C(F)(F)F)c3)[C@H](Cc3ccccc3)C1)CC2 (stereo partly drawn) [Compound 187]
3720 nM | 5500 nM | 15.1 nM | CC(C)(C)OC(=O)N1CCCC1C(=O)N1CCC2(CC1)CCN(C(=O)[C@H]1CCN(C(=O)c3cc(C(F)(F)F)cc(C(F)(F)F)c3)[C@H](Cc3ccccc3)C1)CC2 (stereo partly drawn) [Compound 188]
> 10000 nM | 6760 nM | 28.8 nM | O=C(c1ccsc1)N1CCC2(CC1)CCN(C(=O)[C@H]1CCN(C(=O)c3cc(C(F)(F)F)cc(C(F)(F)F)c3)[C@H](Cc3ccccc3)C1)CC2 [Compound 189]
3550 nM | 1620 nM | 6.17 nM | Cc1nnsc1C(=O)N1CCC2(CC1)CCN(C(=O)[C@H]1CCN(C(=O)c3cc(C(F)(F)F)cc(C(F)(F)F)c3)[C@H](Cc3ccccc3)C1)CC2 [Compound 190]
5750 nM | 2510 nM | 240 nM | CC(C)CN1CCC2(CCN([C@@H]3CCN(C(=O)c4cc(C(F)(F)F)cc(C(F)(F)F)c4)[C@H](Cc4ccccc4)C3)CC2)CC1=O [Compound 193]
1450 nM | ~1410 nM | 53.7 nM | O=C1CC2(CCN1CC1CC1)CCN(C1CCN(C(=O)c3cc(C(F)(F)F)cc(C(F)(F)F)c3)C(Cc3ccccc3)C1)CC2 (stereo not drawn) [Compound 195]
6460 nM | 2880 nM | 191 nM | O=C1CC2(CCN1CC1CCC1)CCN([C@@H]1CCN(C(=O)c3cc(C(F)(F)F)cc(C(F)(F)F)c3)[C@H](Cc3ccccc3)C1)CC2 [Compound 197]
> 10000 nM | 4790 nM | 339 nM | O=C1CC2(CCN1Cc1ccoc1)CCN([C@@H]1CCN(C(=O)c3cc(C(F)(F)F)cc(C(F)(F)F)c3)[C@H](Cc3ccccc3)C1)CC2 [Compound 198]
851 nM | 2750 nM | 37.2 nM | O=C1CC2(CCN1Cc1ccoc1)CCN([C@H]1CCN(C(=O)c3cc(C(F)(F)F)cc(C(F)(F)F)c3)[C@H](Cc3ccccc3)C1)CC2 [Compound 199]
6920 nM | 1450 nM | 23.4 nM | Cc1noc(C)c1CN1CCC2(CCN([C@H]3CCN(C(=O)c4cc(C(F)(F)F)cc(C(F)(F)F)c4)[C@H](Cc4ccccc4)C3)CC2)CC1=O [Compound 200]
~10000 nM | 2820 nM | 219 nM | Cc1noc(C)c1CN1CCC2(CCN([C@@H]3CCN(C(=O)c4cc(C(F)(F)F)cc(C(F)(F)F)c4)[C@H](Cc4ccccc4)C3)CC2)CC1=O [Compound 201]
7240 nM | 4570 nM | 245 nM | O=C1CC2(CCN1Cc1ccccc1F)CCN([C@H]1CCN(C(=O)c3cc(C(F)(F)F)cc(C(F)(F)F)c3)[C@H](Cc3ccccc3)C1)CC2 [Compound 202]
> 10000 nM | 3390 nM | 661 nM | O=C1CC2(CCN1Cc1ccccc1F)CCN([C@@H]1CCN(C(=O)c3cc(C(F)(F)F)cc(C(F)(F)F)c3)[C@H](Cc3ccccc3)C1)CC2 [Compound 203]
5750 nM | 1910 nM | 589 nM | CC(C)(C)C(=O)N1CCCC2(CCCN([C@H]3CCN(C(=O)c4cc(C(F)(F)F)cc(C(F)(F)F)c4)[C@H](Cc4ccccc4)C3)C2)C1 (stereo partly drawn) [Compound 207]
4270 nM | 2630 nM | 347 nM | O=C(C1CC1)N1CCCC2(CCCN([C@H]3CCN(C(=O)c4cc(C(F)(F)F)cc(C(F)(F)F)c4)[C@H](Cc4ccccc4)C3)C2)C1 (stereo partly drawn) [Compound 208]
